Where two headings read alike, the source gives them in different places.
Key:
[1] = molecular target: T1, K15A-TTR (Homo sapiens, UniProt P02766, K35A); experiment: Acid-mediated K15A-TTR fibril formation with non-covalent stabilizers; assay type: biochemical; conditions: compound 7.2 μM, 72 hours, pH 4.4
T1 construct: composed of 127-residue β-sheet-rich subunits; made in house
Procedure: Compounds (5 μL of 1.44 mM solution in DMSO) were added to 495 μL of TTR (7.2 μM, in 10 mM sodium phosphate, 100 mM KCl, 1 mM EDTA, pH 7.0). The mixtures were vortexed and incubated (maintained) for 18 hours at 25° C. An acidic buffer solution (500 μL, 100 mM acetate, 100 mM KCl, 1 mM EDTA, pH 4.2) was added to obtain a final pH value of 4.4, and the mixtures were incubated at 37° C. for 72 hours without agitation. The solutions were vortexed to evenly distribute any precipitate, and turbidity was measured at 400 nm using a Hewlett Packard model 8453 UV-VIS Spectrophotometer.

[2] = system: WT-TTR cytotoxicity in human IMR-32 neuroblastoma cells; experiment: Inhibition of WT-TTR cytotoxicity in IMR-32 cells (resazurin reduction); assay type: cell-based; conditions: WT-TTR 8 μM, compounds 2, 4, 6 and 8 μM, 24 hours
Procedure: Cell viability was measured after 24 hours by a resazurin reduction assay.
(§1) The human neuroblastoma IMR-32 cell line (CCL-127 ATCC) was maintained in Opti-MEM® medium (Invitrogen), supplemented with 5% FBS, 1 mM Hepes buffer, 2 mM L-glutamine, 100 units/mL penicillin, 100 μg/mL streptomycin and 0.05 mg/mL CaCl2 (complete cell medium). Cells were seeded in black wall, clear bottom, tissue culture treated 96-well plates (Costar) at a density of 6,000 cells/well in complete cell medium and incubated overnight (about 18 hours) at 37° C.
(§2) Recombinant WT-TTR purified in the cold was used as the cytotoxic insult. The protein was buffer-exchanged in Hanks' Balanced Salt Solution (HBSS, Mediatech, Manassas, Va.) at 10° C. using a Centriprep® filter device (10 kDa MWCO, Millipore). Compounds (16 mM in DMSO) were diluted 1:1000 with WT-TTR (16 μM in HBSS, filter sterilized) or with HBSS only, vortexed and incubated for 18 hours at 37° C. WT-TTR (16 μM in HBSS) containing the same amount of DMSO was prepared in parallel and incubated under the same conditions.
(§3) The medium was removed from the cells and replaced immediately by the TTR/compound mixtures or HBSS previously diluted 1:1 in Opti-MEM® supplemented with 0.8 mg/mL BSA, 2 mM Hepes buffer, 4 mM L-glutamine, 200 units/mL penicillin, 200 μg/mL streptomycin and 0.1 mg/mL CaCl2. The cells were incubated 24 hours at 37° C. Cell viability was evaluated by a resazurin reduction assay.
(§4) Briefly, 10 μL of resazurin (500 μM, PBS) was added to each well and fluorescence quantified in a plate reader (Ex/Em 530/590 nm, Tecan Safire 2, Austria) after 1 hour of incubation at 37° C. Cell viability was calculated as percentage of fluorescence relative to cells treated only with vehicle (100% viability) after subtraction of blank fluorescence (wells without cells). Averages and standard errors from 2 independently performed studies, each performed at least in triplicate, were calculated using GraphPrism (San Diego, Calif., US).

[3] = system: IMR-32 cells; experiment: Compound cytotoxicity to IMR-32 cells in the absence of WT-TTR; assay type: cell-based, human
Procedure: Metabolically active cells reduce the resazurin redox dye to resorufin, a soluble fluorescent compound. [O'Brien et al., Eur. J. Biochem. 267:5421-5426 (2002)] The percentage of viable cells was calculated relative to cells treated with vehicle only (cell culture media and DMSO=100% viable).
as §1, §2, §3, §4

[4] = molecular target: T2, WT-TTR (Homo sapiens, UniProt P02766); experiment: Acid-mediated WT-TTR fibril formation assay (turbidity at 400 nm); assay type: biochemical; conditions: WT-TTR 3.6 μM, % fibril formation after 72 hours; read-out: IC50 (apparent), inhibition of WT-TTR amyloidogenesis
T2 construct: composed of 127-residue β-sheet-rich subunits; made in house; host or cells: E. coli
Procedure: The mixtures were vortexed and incubated (maintained) for 18 hours at 25° C.

IC50 [4] [µM] | SMILES | stabilization of K15A-TTR (in words) [1] | inhibition of WT-TTR cytotoxicity to IMR-32 cells (in words) [2] | cytotoxicity to IMR-32 cells in the absence of WT-TTR ([3]; human, IMR-32 neuroblastoma cells, 24 h, 8 µM) | cytotoxicity to IMR-32 cells in the absence of WT-TTR [3]
 | Cc1cc(/C=C/c2ccccc2)cc(C)c1O [Compound 9, reference compound] | additional stabilization of K15A-TTR was observed | clearly and dose-dependently inhibits IMR-32 cytotoxicity | None of these compounds were cytotoxic to IMR-32 cells | 
~3 | Cc1cc(/C=C/c2ccc(C(=O)O)cc2)cc(C)c1O [Compound 8, reference compound] | additional stabilization of K15A-TTR was observed | clearly and dose-dependently inhibits IMR-32 cytotoxicity |  | None of these compounds were cytotoxic to IMR-32 cells
